{
  "source": "patent US9915650B2",
  "about": "“Method of detection of cAMP and cGMP via a fluorophore and dequencher complex” (HOFFMANN-LA-ROCHE INC., priority 2006, dated 2018)",
  "key": {"[1]": {"test": "Quenching of free MR121 fluorescence by cyclic nucleotides and cAMP derivates (Stern-Volmer plot)", "type": "binding", "conditions": "for quenching of MR121 (decrease of fluorescence intensity, fluorescence lifetime) / association constant, Ks, with MR121: 20 nM MR121 in PBS, 30 min RT; for quenching of MR121 (decrease of fluorescence intensity, fluorescence lifetime): quencher 0-12.8 mM; for association constant, Ks, with MR121: calculated from linear region (up to 3.2 mM) of I0/I plot; for quenching of MR121 in low concentrations: concentrations up to 10 μM (range of cellular concentrations)", "experimental": "The fluorescent intensity was adjusted to about 60% of the maximal signal of the employed iCCD camera by using attenuation filters and varying exposure times.\n(§1) Fluorescence and lifetime were measured after an incubation time of 30 minutes at RT.\nIn order to analyze the quenching mechanism, measurements of fluorescence intensity and fluorescence lifetime of free MR121 as a function of different molecules (Trp, cAMP, 2-AHA-cAMP, 8-AHA-cAMP, 8-ADOA-cAMP, 2′-AEC-cAMP, N-6-Aminohexyl-cAMP, 8-MBT-cAMP and 8-OH-cAMP, see FIG. 4, 5) were carried out.\nas §1\nIn FIG. 5 the change in fluorescence intensity (I0/I) is plotted for all cAMP derivatives investigated."}, "anti-cAMP antibody": {"biological_target": "anti-cAMP antibody", "test": "cAMP/cGMP standard curves: displacement of tracer from anti-cAMP antibody, fluorescence readout", "type": "binding, mouse"}, "[2]": {"conditions": "literature value for tryptophane; cited from earlier work"}, "CHO-K1 cells": {"system": "CHO-K1 cells", "test": "cAMP cellular assay, forskolin dose response curve", "type": "cell-based", "conditions": "Cricetulus griseus, 0.5 h; CHO-K1, 10,000 cells/well, 1 mM IBMX, 30 min at 37° C.", "experimental": "Cell numbers from 2, 500 to 20, 000 cell/well were plated in 25 μl medium and incubated for 20 h at 37° C. The medium was removed and after adding 10 μl of PBS with 0.1% BSA and 1 mM IBMX the cells were incubated for 60 minutes at 37° C. 10 μl of forskolin dilutions in PBS+0.1% BSA+1 mM IBMX from 0.01 to 300 μM (final concentration in 20 μl assay volume) were added and incubated for another 30 minutes at 37° C."}, "[3]": {"test": "Quenching of ATTO590 by 8-AHA-cAMP (Stern-Vollmer plot)", "type": "binding", "conditions": "20 nM ATTO590 in PBS, 30 min RT; linear region (up to 3.2 mM)", "experimental": "(§2) All fluorescence intensity measurements were carried out by means of a plate:vision fluorescence reader (Evotec Technologies GmbH, Schnackenburgallee 114, D-22525 Hamburg, Germany) equipped with a high pressure Xe arc lamp using for the measurements with MR121 an excitation filter at 630 nm (bandwidth 50 nm) and an emission filter at 695 nm (bandwidth 55 nm) and for the measurements with Atto 700 an excitation filter at 655 nm (bandwidth 50 nm) and an emission filter at 710 nm (bandwidth 40 nm). The fluorescent intensity was adjusted to about 60% of the maximal signal of the employed iCCD camera by using attenuation filters and varying exposure times. The lifetime measurements were performed by means of a plate:vision TRF reader (Evotec Technologies GmbH, Schnackenburgallee 114, D-22525 Hamburg, Germany) with an OPO system as light source (GWU Lasertechnik Vertriebsgesellschaft m.b.H., 50374 Erftstadt, Germany) tuned to 630 nm for excitation and the emission filter at 695 nm.\n(§3) 20 μl ATTO590 and ATTO655 respectively (in PBS, end concentration 20 nM) and 20 μl quencher (8-AHA-cAMP) in PBS (DMSO end concentration in the assay: 1.25%) were pipetted into a microtiter plate. Fluorescence and lifetime were measured after an incubation time of 30 minutes at RT. […] The association constant, Ks, was calculated from the linear region (up to 3.2 mM) of the plot."}, "[4]": {"test": "Solubility seen in the quenching plot (FIG. 5)", "type": "physicochemical", "conditions": "above ˜5 mM, PBS, deviation from linearity of I0/I plot", "from_the_text": "I0/I: change in fluorescence intensity"}, "[5]": {"test": "Quenching of ATTO655 by 8-AHA-cAMP (Stern-Vollmer plot)", "type": "binding", "conditions": "20 nM ATTO655 in PBS, 30 min RT; linear region (up to 3.2 mM)", "experimental": "as §2, §3"}, "[6]": {"conditions": "20 nM MR121-2-AHA-cAMP tracer, 40 nM antibody, without cells (FIG. 14), read-out: IC50, comparison of standard curves for cAMP and cGMP"}},
  "note": "Where “and” joins values, the source holds several entries; their conditions need not be identical. Identical values can stand only once. Entries after “also recorded” stand apart in the source; their conditions may differ. Like-named read-outs stand apart in the source and are kept apart here.",
  "data": [
    {"smiles": "NCCCCCCNc1ncnc2c1ncn2[C@@H]1O[C@@H]2COP(=O)(O)O[C@H]2[C@H]1O", "note": "[N-6-Aminohexyl-cAMP]", "values": [
      {"measurement": "quenching of MR121 (decrease of fluorescence intensity, fluorescence lifetime)", "setting": "[1]", "result": "no quenching at all"}
    ]},
    {"smiles": "NCCOCCOCCNc1nc2c(N)ncnc2n1[C@@H]1O[C@@H]2COP(=O)(O)O[C@H]2[C@H]1O", "note": "[8-ADOA-cAMP, 8-(8-Amino-3,6-dioxaoctylamino)-cAMP]", "values": [
      {"measurement": "association constant, Ks, with MR121", "setting": "[1]", "result": 475, "unit": "M⁻¹"}
    ]},
    {"smiles": "Nc1ncnc2c1ncn2[C@@H]1O[C@@H]2COP(=O)(O)O[C@H]2[C@H]1O", "note": "[cAMP, cyclic adenosine monophosphate]", "values": [
      {"measurement": "quenching of MR121 (decrease of fluorescence intensity, fluorescence lifetime)", "setting": "[1]", "result": "no quenching at all"},
      {"measurement": "quenching of MR121 in low concentrations", "setting": "[1]", "result": "neither cAMP nor cGMP quenches MR121; also recorded: neither cAMP nor cGMP quench the fluorophore"},
      {"measurement": "IC50", "setting": "anti-cAMP antibody; 5 nM Atto700-2-AHA-cAMP tracer, 5 nM antibody, without cells (FIG. 15), read-out: IC50, dose response curve with Atto700-2-AHA-cAMP tracer", "result": 48, "unit": "nM"},
      {"measurement": "IC50", "setting": "anti-cAMP antibody; [6]", "result": 134, "unit": "nM"},
      {"measurement": "IC50", "setting": "anti-cAMP antibody; 20 nM MR121-2-AHA-cAMP, 40 nM anti-cAMP antibody, 10'000 CHO-K1 cells/well, read-out: IC50, standard curve with cells", "result": "119 nM and 102 nM"},
      {"measurement": "IC50", "setting": "anti-cAMP antibody; 20 nM MR121-2-AHA-cAMP, 40 nM anti-cAMP antibody, without cells (FIG. 8), read-out: IC50, standard curve without cells", "result": 109, "unit": "nM"}
    ]},
    {"smiles": "N[C@@H](Cc1c[nH]c2ccccc12)C(=O)O", "note": "[tryptophane]", "values": [
      {"measurement": "association constant Ks with MR121, reported in the literature", "setting": "[2]", "result": "~220", "unit": "M⁻¹"},
      {"measurement": "quenching of MR121 (decrease of fluorescence intensity, fluorescence lifetime)", "setting": "[1]", "result": "decrease in fluorescence intensity without a change in fluorescence lifetime"}
    ]},
    {"smiles": "Nc1nc2c(ncn2[C@@H]2O[C@@H]3COP(=O)(O)O[C@H]3[C@H]2O)c(=O)[nH]1", "note": "[cGMP, cyclic GMP]", "values": [
      {"measurement": "quenching of MR121 (decrease of fluorescence intensity, fluorescence lifetime)", "setting": "[1]", "result": "quenches MR121 at higher concentrations"},
      {"measurement": "quenching of MR121 in low concentrations", "setting": "[1]", "result": "neither cAMP nor cGMP quenches MR121; also recorded: neither cAMP nor cGMP quench the fluorophore"},
      {"measurement": "concentration at which the nucleotide has quenching capabilities", "setting": "[1]; fluorophore quenching", "result": "≥ 1", "unit": "mM"},
      {"measurement": "IC50", "setting": "anti-cAMP antibody; [6]", "result": 387, "unit": "nM"}
    ]},
    {"smiles": "NCCCCCCNc1nc(N)c2ncn([C@@H]3O[C@@H]4COP(=O)(O)O[C@H]4[C@H]3O)c2n1", "note": "[2-AHA-cAMP, 2-(6-Aminohexyl)amino-cAMP]", "values": [
      {"measurement": "association constant, Ks, with MR121", "setting": "[1]", "result": 512, "unit": "M⁻¹"}
    ]},
    {"smiles": "C=C[C@@]1(C)CC(=O)[C@]2(O)[C@@]3(C)[C@@H](O)CCC(C)(C)[C@@H]3[C@H](O)[C@H](OC(C)=O)[C@@]2(C)O1", "note": "[forskolin]", "values": [
      {"measurement": "IC50", "setting": "CHO-K1 cells", "result": 3700, "unit": "nM"}
    ]},
    {"smiles": "Nc1ncnc2c1[nH]c(=O)n2C1OC2COP(=O)(O)OC2C1O", "note": "(stereo not shown) [8-OH-cAMP, 8-Hydroxy-cAMP]", "values": [
      {"measurement": "association constant, Ks, with MR121", "setting": "[1]", "result": 236, "unit": "M⁻¹"}
    ]},
    {"smiles": "Nc1ncnc2c1nc(SCCCCS)n2[C@@H]1O[C@@H]2COP(=O)(O)O[C@H]2[C@H]1O", "note": "[8-MBT-cAMP, 8-(4-Mercaptobutylthio)-cAMP]", "values": [
      {"measurement": "association constant, Ks, with MR121", "setting": "[1]", "result": 758, "unit": "M⁻¹"}
    ]},
    {"smiles": "NCCCCCCNc1nc2c(N)ncnc2n1[C@@H]1O[C@@H]2COP(=O)(O)O[C@H]2[C@H]1O", "note": "[8-AHA-cAMP, 8-(6-Aminohexyl)amino-cAMP]", "values": [
      {"measurement": "association constant, Ks, with MR121", "setting": "[1]", "result": 514, "unit": "M⁻¹"},
      {"measurement": "association constant, Ks, with Atto590", "setting": "[3]", "result": 282, "unit": "M⁻¹"},
      {"measurement": "solubility", "setting": "[4]", "result": "solubility problems"},
      {"measurement": "association constant, Ks, with Atto655", "setting": "[5]", "result": 347, "unit": "M⁻¹"}
    ]}
  ]
}
